In article PMC5062114, “Dual-targeting anti-angiogenic cyclic peptides as potential drug leads for cancer therapy” (Scientific Reports, 2016):

Key:
PC3 = assay: cells; conditions: Homo sapiens, PC-3, 48 h, read-out: IC50 ± S.D.; 48 hours, PC3
Protocol: (§1) HUVECs (human umbilical vein endothelial cells) were cultured in EGM™-2 BulletKit™ supplemented with SingleQuots™ (supplements: growth factors, cytokines, antibiotics; Lonza) and 10% FBS (catalog no. FFBS-500; Scientifix). Both HT-29 and MCF-7 cells were cultured in 10% FBS/DMEM (Dulbecco’s Modified Eagle Medium) with 1% penicillin–streptomycin (5000 U/mL; Life Technologies), whereas PC3 cells (prostate cancer cells) were cultured in 10% FBS/RPMI (Roswell Park Memorial Institute) 1640 with 1% penicillin–streptomycin (5000 U/mL; Life Technologies). All cells were maintained at 37 °C in 5% CO2.
(§2) Cell cytotoxicity and proliferation assays were performed using similar methods to those described by Chan et al.[45]. All cells were maintained using the media conditions described above, and passages two to ten were used for all cell lines. For all cell lines, 5.0 × 10^3 cells/well (100 μL) and 1.5 × 10^3 cells/well (100 μL) were used for cell cytotoxicity and cell proliferation assays, respectively. All peptides (10 μL, at final concentrations ranging from 0.05–100 μM) and drugs, which included cilengitide, octreotide and sunitinib (at final concentrations ranging from 0.00001–100 μM), were used in both assays. Triton X-100 (0.1% (v/v); 10 μL) was used as a positive control. Cells were treated with fresh media the day after plating, before the addition of peptides, followed by a subsequent 2-h and 48-h incubation for cell cytotoxicity and cell proliferation, respectively. After different incubation periods, 3-(4, 5-dimethylthiazolyl-2)-2,5-diphenyltetrazolium bromide (MTT) (10 μL; 5 mg/mL in PBS) was added, and cells were incubated for a further 4 h. The supernatant was then removed and 100 μL DMSO added to solubilize formazan salts. Experiments were performed in triplicate. Cell numbers were recorded at 600 nm. All data represent average mean ± SD.

HUVEC = assay: cells; conditions: Homo sapiens, HUVEC, 48 h, read-out: IC50 ± S.D.; 48 hours, HUVEC
Protocol: as §1, §2

MCF-7 = assay: cells; conditions: Homo sapiens, MCF7, 48 h, read-out: IC50 ± S.D.; 48 hours, MCF-7
Protocol: as §1, §2

HT-29 = assay: cells; conditions: Homo sapiens, HT-29, 48 h, read-out: IC50 ± S.D.; 48 hours, HT-29
Protocol: as §1, §2

HUVEC migration = assay: VEGF-mediated HUVEC transwell migration assay; assay type: cell-based, human; conditions: Homo sapiens, HUVEC; 10 μM, 0.3 nM VEGF
Protocol: Figure 5 Cell migration on VEGF-mediated HUVECs. The percentage of HUVEC migration was analyzed using Prism Version 6 (GraphPad). (A–T) VEGF was used as a positive control with 100% HUVEC migration. All peptides were tested at concentrations ranging from 0.001–50 μM except for cilengitide and octreotide, which were tested in 10-fold dilutions from 10 μM. Peptides were added in the presence of 0.3 nM VEGF (bottom chamber). Data are shown as mean ± SD (n ≥ 3). Data were normalized to the mean VEGF control. P-values are represented as follows: ****p ≤ 0.0001, ***p ≤ 0.001, **p ≤ 0.01, and *p ≤ 0.05.
A cell migration assay was performed as described by Chan et al.[45] HUVECs between passages three and ten were used. Briefly, initial peptide concentrations of 10–500 μM were prepared for all peptides except SFTI-SST-01, MCo-SST-01, SFTI-SST-02, MCo-SST-02, SFTI-PEDF, MCo-PEDF (0.01–500 μM), cilengitide, octreotide, and MCoAA-02 (1 × 10^−7 M–100 μM). To the apical well, 100 μL of 1 × 10^5 cells/well were seeded and 600 μL of medium supplemented with or without 0.3 nM VEGF (Sigma, catalogue no. V7259) was added to the basolateral well. The well containing cells with 0.1% FBS/EGM-2 basal medium was used as a negative control, and the well containing cells with 0.3 nM VEGF was used as a positive control. All peptides were stimulated with 0.3 nM VEGF. Experiments were done in triplicate. […]

`CCN(CC)CCNC(=O)c1c(C)[nH]c(/C=C2\C(=O)Nc3ccc(F)cc32)c1C` [sunitinib, Sunitinib malate, reference compound] gave an IC50 (PC3) of 16.2 ± 0.26 µM, an IC50 (HUVEC) of 19.1 ± 0.46 µM and an IC50 (MCF-7) of 17.07 ± 0.11 µM. For the same compound, the IC50 (HT-29) was 1430 ± 240 nM and the inhibition at 10 µM (HUVEC migration) was 100%.
